Among the data in ChEMBL document CHEMBL1126535, “Angiotensin II receptor antagonists containing a phenylpyridine element” (Bioorg Med Chem Lett, 1993) are IC50 and Activity values, retold here.

Experiment [1] has as its target T1, Type-1 angiotensin II receptor (Oryctolagus cuniculus, UniProt P34976).
T1 sequence (P34976 whole entry): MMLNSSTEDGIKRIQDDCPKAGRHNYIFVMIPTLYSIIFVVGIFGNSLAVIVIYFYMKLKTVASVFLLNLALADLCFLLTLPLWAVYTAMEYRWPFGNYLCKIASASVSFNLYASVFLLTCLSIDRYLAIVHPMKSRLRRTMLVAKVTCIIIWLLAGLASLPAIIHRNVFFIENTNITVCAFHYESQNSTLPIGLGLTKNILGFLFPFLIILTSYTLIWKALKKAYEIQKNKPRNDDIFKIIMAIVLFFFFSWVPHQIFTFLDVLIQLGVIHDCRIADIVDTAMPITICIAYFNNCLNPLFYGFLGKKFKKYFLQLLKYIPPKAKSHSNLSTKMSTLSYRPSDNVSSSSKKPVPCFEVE
Briefly: In vitro binding affinity towards Angiotensin II type 1-AT1 receptor determined as its ability to displace 125I-Sarl,Ile8-AII from the receptor expressed in rabbit aorta membrane. Type of experiment: cell membranes.

Experiment [2] has as its target T2, Type-2 angiotensin II receptor (Rattus norvegicus, UniProt P35351).
T2 sequence (P35351 whole entry): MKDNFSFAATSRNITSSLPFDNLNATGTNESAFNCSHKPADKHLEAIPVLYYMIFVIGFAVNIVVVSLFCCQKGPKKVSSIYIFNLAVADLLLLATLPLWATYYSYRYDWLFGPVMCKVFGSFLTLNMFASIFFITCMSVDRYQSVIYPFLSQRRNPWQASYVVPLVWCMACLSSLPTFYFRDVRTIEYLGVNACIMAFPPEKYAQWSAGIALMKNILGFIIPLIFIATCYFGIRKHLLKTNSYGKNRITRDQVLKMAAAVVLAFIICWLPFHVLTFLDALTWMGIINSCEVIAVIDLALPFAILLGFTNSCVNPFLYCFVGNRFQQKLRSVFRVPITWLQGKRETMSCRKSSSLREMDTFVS
Briefly: In vitro binding affinity towards Angiotensin II receptor, type 2 determined as its ability to displace 125I-Sarl,Ile8-AII from the receptor expressed in rat midbrain membrane. Type of experiment: cell membranes.

The next experiment concerns Rattus norvegicus. Briefly: In vivo potency for the inhibition of pressor response in normotensive rats (i.v.). Type of experiment: functional.

As a reminder, the IC50 is the concentration at which inhibition is half-maximal.

In experiment [1], `CCCc1nc2c(C)ccnc2n1Cc1ccc(-c2ccccc2-c2nn[nH]n2)cc1` yielded an IC50 of 1 nM. In experiment [2], `CCCc1nc2c(C)ccnc2n1Cc1ccc(-c2ncccc2-c2nn[nH]n2)cc1` had an IC50 greater than 20000 nM. With `CCCc1nc2c(C)ccnc2n1Cc1ccc(-c2ccncc2-c2nn[nH]n2)cc1`, the IC50 was 4 nM in experiment [1] and greater than 20000 nM in experiment [2]. The compound also displayed an Activity with Rattus norvegicus of 0.1 mg/kg.

Consider `CCCc1nc2c(C)ccnc2n1Cc1ccc(-c2cccnc2-c2nn[nH]n2)cc1`, for which the values for the IC50 in experiment [1] and in experiment [2] were 60 nM and greater than 20000 nM, respectively. In experiment [2], `CCc1nc2c(C)cc(C)nc2n1Cc1ccc(-c2ccccc2-c2nnn[nH]2)cc1` [L-158809] gave an IC50 greater than 20000 nM.
